Reference: patent US12570655B2, “Cysteine covalent modifiers of AKT1 and uses thereof” (Terremoto Biosciences, Inc., priority 2023, dated 2026)
Where two headings read alike, the source gives them in different places.

Tests used:
Type in all cases: cell-based
AKT1 WT = molecular target: T1, AKT1 WT (Homo sapiens, UniProt P31749); test: Live cell AKT1 WT target engagement by NanoBRET competitive probe displacement; conditions: HEK293 cells transfected with kinase-NanoLuciferase fusion, 2 h at 37° C.
T1 construct: expressed in transfected cells; host or cells: HEK293
Method in brief: (§1)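 Luminescence ratio 600/460 nm served as readout after HEK293 cells bearing transiently expressed kinase–NanoLuciferase fusions were exposed 2 h at 37 °C to test compound alongside an ATP-competitive fluorescent tracer near EC50. Extracellular signal was quenched by a luciferase inhibitor.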

AKT2 = molecular target: T2, AKT2 (Homo sapiens, UniProt P31751); test: Live cell AKT2 target engagement by NanoBRET competitive probe displacement; conditions: HEK293 cells transfected with kinase-NanoLuciferase fusion, 2 h at 37° C.
T2 construct: expressed in transfected cells; host or cells: HEK293
Method: Determining Live Cell AKT1 E17K, AKT1 WT, and AKT2 Target Engagement by NanoBRET Competitive Probe Displacement.
Live cell target engagement assays were performed as described (Vasta, J. D. et al. Cell Chem Biol 2018, 25(11), 206-214). Briefly, HEK293 cells were transfected with plasmids encoding kinase-NanoLuciferase fusion proteins overnight. Cells were then treated with serial dilutions of compound and an ˜EC50 concentration of fluorescently-tagged ATP-competitive tracer (Promega). After incubation for 2 h at 37° C., luciferase substrate and extracellular luciferase inhibitor were added to all wells, and luminescent intensity at 460 nm and 600 nm were measured on a multimode plate-reader. The ratio of E600/E460 was calculated to give the tracer engagement signal (BRET). IC50 values were calculated by fitting BRET values to a log(inhibitor) vs. response Hill equation.

[1] = test system: LAPC4 prostate cancer cells; test: Antiproliferative effects in LAPC4 cells (CellTiter Glo); conditions: LAPC4 cells (AKT1 E17K allele), read-out: LAPC4 proliferation IC50
Method in brief: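 IC50 values reflect 72 h compound treatment of cells plated at 1,000 per well, with CellTiter Glo luminescence as the viability read-out.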

AKT1 E17K = molecular target: T3, AKT1 E17K (Homo sapiens, UniProt P31749, E17K); test: Live cell AKT1 E17K target engagement by NanoBRET competitive probe displacement; conditions: HEK293 cells transfected with kinase-NanoLuciferase fusion, 2 h at 37° C.
T3 construct: expressed in transfected cells; host or cells: HEK293
Method in brief: as §1

T2 sequence (P31751 whole entry, the tested form may be a part): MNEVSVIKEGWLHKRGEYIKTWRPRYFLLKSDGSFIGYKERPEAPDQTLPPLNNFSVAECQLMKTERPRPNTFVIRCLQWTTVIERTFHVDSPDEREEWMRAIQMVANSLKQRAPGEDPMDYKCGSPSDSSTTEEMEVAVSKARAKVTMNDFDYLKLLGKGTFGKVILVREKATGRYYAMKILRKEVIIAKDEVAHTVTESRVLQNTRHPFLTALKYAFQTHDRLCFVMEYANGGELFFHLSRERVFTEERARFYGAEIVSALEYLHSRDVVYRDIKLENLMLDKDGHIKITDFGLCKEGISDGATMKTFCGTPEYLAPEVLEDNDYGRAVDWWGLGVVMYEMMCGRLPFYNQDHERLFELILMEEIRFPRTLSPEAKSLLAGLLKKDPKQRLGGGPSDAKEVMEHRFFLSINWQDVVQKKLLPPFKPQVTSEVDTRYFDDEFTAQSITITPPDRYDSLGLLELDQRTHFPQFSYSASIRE
T1 sequence (P31749 whole entry, the tested form may be a part): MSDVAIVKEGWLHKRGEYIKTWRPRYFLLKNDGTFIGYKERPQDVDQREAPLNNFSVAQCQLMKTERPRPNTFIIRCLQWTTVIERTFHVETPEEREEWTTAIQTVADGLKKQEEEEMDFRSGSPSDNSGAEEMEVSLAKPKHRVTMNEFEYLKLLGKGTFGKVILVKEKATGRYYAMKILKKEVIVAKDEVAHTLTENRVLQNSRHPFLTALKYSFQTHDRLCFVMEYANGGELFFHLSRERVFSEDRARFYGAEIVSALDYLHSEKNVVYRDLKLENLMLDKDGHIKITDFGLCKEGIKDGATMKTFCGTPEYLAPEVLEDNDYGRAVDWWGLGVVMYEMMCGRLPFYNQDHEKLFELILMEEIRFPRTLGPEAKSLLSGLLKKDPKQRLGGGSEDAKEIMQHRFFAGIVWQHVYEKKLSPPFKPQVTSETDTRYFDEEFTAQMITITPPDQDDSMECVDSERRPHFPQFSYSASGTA
T3 sequence (P31749 whole entry E17K, the tested form may be a part): as the sequence (P31749 whole entry, the tested form may be a part) above, with E17K counted along it

Compound	IC50 (AKT1 WT) [nM]	IC50 (AKT2) [nM]	IC50 ([1]; Homo sapiens, LAPC4, 72 h) [nM]	IC50 (AKT1 E17K) [nM]	IC50 ([1]; 72 h) [nM]
C=CC(=O)N1CCC(N[C@H]2CCc3cc(-n4c(-c5cccnc5N)nc5ccc(C6CC6)nc54)ccc32)C(F)C1 (mixture of isomers) [Example 175, 1-(4-(((S)-5-(2-(2-aminopyridin-3-yl)-5-cyclopropyl-3H-imidazo[4,5-b]pyridin-3-yl)-2,3-dihydro-1H-inden-1-yl)amino)-3-fluoropiperidin-1-yl)prop-2-en-1-one]	820	123	271	17.9	
C=CC(=O)N1CCN(NC2CCc3cc(-n4c(-c5cccnc5N)nc5ccc(-n6cccn6)nc54)ccc32)CC1 (racemic) [Example 77, 1-[4-({5-[2-(2-aminopyridin-3-yl)-5-(pyrazol-1-yl)imidazo[4,5-b]pyridin-3-yl]-2,3-dihydro-1H-inden-1-yl}amino)piperazin-1-yl]prop-2-en-1-one]	17.9	346	247	86.3	
C=CC(=O)NC1CCC(N[C@H]2CCc3cc(-n4c(-c5cccnc5N)nc5ccc(-n6cccn6)nc54)ccc32)CC1 (single isomer, unassigned) [Example 47, N-((1*,4*)-4-(((S)-5-(2-(2-aminopyridin-3-yl)-5-(1H-pyrazol-1-yl)-3H-imidazo[4,5-b]pyridin-3-yl)-2,3-dihydro-1H-inden-1-yl)amino)cyclohexyl)acrylamide]	200	2570		548	4270
C=CC(=O)NC1CCC(N[C@H]2CCc3cc(-n4c(-c5cccnc5N)nc5ccc(-n6cccn6)nc54)ccc32)CC1 (single isomer, unassigned) [Example 48, N-((1*,4*)-4-(((S)-5-(2-(2-aminopyridin-3-yl)-5-(1H-pyrazol-1-yl)-3H-imidazo[4,5-b]pyridin-3-yl)-2,3-dihydro-1H-inden-1-yl)amino)cyclohexyl)acrylamide]	111	1280		799	1400
C=CC(=O)N1CCOCC(N[C@H]2CCc3cc(-n4c(-c5cccnc5N)nc5ccc(-n6cccn6)nc54)ccc32)C1 (single isomer, unassigned) [Example 53, 1-((*)-6-(((S)-5-(2-(2-aminopyridin-3-yl)-5-(1H-pyrazol-1-yl)-3H-imidazo[4,5-b]pyridin-3-yl)-2,3-dihydro-1H-inden-1-yl)amino)-1,4-oxazepan-4-yl)prop-2-en-1-one]	407	3940		> 1000	2850
C=CC(=O)N1CCOCC(N[C@H]2CCc3cc(-n4c(-c5cccnc5N)nc5ccc(-n6cccn6)nc54)ccc32)C1 (single isomer, unassigned) [Example 54, 1-((*)-6-(((S)-5-(2-(2-aminopyridin-3-yl)-5-(1H-pyrazol-1-yl)-3H-imidazo[4,5-b]pyridin-3-yl)-2,3-dihydro-1H-inden-1-yl)amino)-1,4-oxazepan-4-yl)prop-2-en-1-one]	27.1	292		58.5	107
C=CC(=O)N1CCC(N[C@H]2CCc3cc(-n4c(-c5cccnc5N)nc5ccc(-n6cccn6)nc54)ccc32)C(F)(F)C1 (single isomer, unassigned) [Example 55, 1-((*)-4-(((S)-5-(2-(2-aminopyridin-3-yl)-5-(1H-pyrazol-1-yl)-3H-imidazo[4,5-b]pyridin-3-yl)-2,3-dihydro-1H-inden-1-yl)amino)-3,3-difluoropiperidin-1-yl)prop-2-en-1-one]	93.7	1120		215	617
C=CC(=O)N1CCC(N[C@H]2CCc3cc(-n4c(-c5cccnc5N)nc5ccc(-n6cccn6)nc54)ccc32)C(F)(F)C1 (single isomer, unassigned) [Example 56, 1-((*)-4-(((S)-5-(2-(2-aminopyridin-3-yl)-5-(1H-pyrazol-1-yl)-3H-imidazo[4,5-b]pyridin-3-yl)-2,3-dihydro-1H-inden-1-yl)amino)-3,3-difluoropiperidin-1-yl)prop-2-en-1-one]	6.71	104		23.9	144
C=CC(=O)N1CCC(N[C@H]2CCc3cc(-n4c(-c5cccnc5N)nc5ccc(-n6cccn6)nc54)ccc32)C1 (single isomer, unassigned) [Example 57, 1-((*)-3-(((S)-5-(2-(2-aminopyridin-3-yl)-5-(1H-pyrazol-1-yl)-3H-imidazo[4,5-b]pyridin-3-yl)-2,3-dihydro-1H-inden-1-yl)amino)pyrrolidin-1-yl)prop-2-en-1-one]	10.4	84.6		21.9	104
C=CC(=O)N1CCC(N[C@H]2CCc3cc(-n4c(-c5cccnc5N)nc5ccc(-n6cccn6)nc54)ccc32)C1 (single isomer, unassigned) [Example 58, 1-((*)-3-(((S)-5-(2-(2-aminopyridin-3-yl)-5-(1H-pyrazol-1-yl)-3H-imidazo[4,5-b]pyridin-3-yl)-2,3-dihydro-1H-inden-1-yl)amino)pyrrolidin-1-yl)prop-2-en-1-one]	50.2	1030		189	438
C=CC(=O)N1C[C@H]2C[C@@H](C1)C2N[C@H]1CCc2cc(-n3c(-c4cccnc4N)nc4ccc(-n5cccn5)nc43)ccc21 (single isomer, unassigned) [Example 59, 1-((1R,5S,6*)-6-(((S)-5-(2-(2-aminopyridin-3-yl)-5-(1H-pyrazol-1-yl)-3H-imidazo[4,5-b]pyridin-3-yl)-2,3-dihydro-1H-inden-1-yl)amino)-3-azabicyclo[3.1.1]heptan-3-yl)prop-2-en-1-one]	44.8	648		242	377
C=CC(=O)N1C[C@H]2C[C@@H](C1)C2N[C@H]1CCc2cc(-n3c(-c4cccnc4N)nc4ccc(-n5cccn5)nc43)ccc21 (single isomer, unassigned) [Example 60, 1-((1R,5S,6*)-6-(((S)-5-(2-(2-aminopyridin-3-yl)-5-(1H-pyrazol-1-yl)-3H-imidazo[4,5-b]pyridin-3-yl)-2,3-dihydro-1H-inden-1-yl)amino)-3-azabicyclo[3.1.1]heptan-3-yl)prop-2-en-1-one]	> 1000	1680		406	1380
C=CC(=O)N1CCC(N[C@H]2CCc3cc(-n4c(-c5cccnc5N)nc5ccc(-n6cccn6)nc54)ccc32)C[C@H]1C (single isomer, unassigned) [Example 62, 1-((2R,4*)-4-(((S)-5-(2-(2-aminopyridin-3-yl)-5-(1H-pyrazol-1-yl)-3H-imidazo[4,5-b]pyridin-3-yl)-2,3-dihydro-1H-inden-1-yl)amino)-2-methylpiperidin-1-yl)prop-2-en-1-one]	9.35	31.7		8.39	17.1
C=CC(=O)N1CCC(N[C@H]2CCc3cc(-n4c(-c5cccnc5N)nc5ccc(-n6cccn6)nc54)ccc32)C[C@H]1C (single isomer, unassigned) [Example 63, 1-((2R,4*)-4-(((S)-5-(2-(2-aminopyridin-3-yl)-5-(1H-pyrazol-1-yl)-3H-imidazo[4,5-b]pyridin-3-yl)-2,3-dihydro-1H-inden-1-yl)amino)-2-methylpiperidin-1-yl)prop-2-en-1-one]	24.1	248		47.5	124
C=CC(=O)N1CCC(N[C@H]2CCc3cc(-n4c(-c5cccnc5N)nc5ccc(-n6cccn6)nc54)ccc32)C[C@@H]1C (single isomer, unassigned) [Example 65, 1-((2S,4*)-4-(((S)-5-(2-(2-aminopyridin-3-yl)-5-(1H-pyrazol-1-yl)-3H-imidazo[4,5-b]pyridin-3-yl)-2,3-dihydro-1H-inden-1-yl)amino)-2-methylpiperidin-1-yl)prop-2-en-1-one]	29.6	397		58.3	203
C=CC(=O)N1CCC(N[C@H]2CCc3cc(-n4c(-c5cccnc5N)nc5ccc(-n6cccn6)nc54)ccc32)C[C@@H]1C (single isomer, unassigned) [Example 66, 1-((2S,4*)-4-(((S)-5-(2-(2-aminopyridin-3-yl)-5-(1H-pyrazol-1-yl)-3H-imidazo[4,5-b]pyridin-3-yl)-2,3-dihydro-1H-inden-1-yl)amino)-2-methylpiperidin-1-yl)prop-2-en-1-one]	12.1	51.5		29.6	68
